Measurements reported in patent US20210395698A1, “METHODS AND COMPOSITIONS FOR CULTIVATING PLURIPOTENT CELL SUSPENSIONS” (Life Technologies Corporation, priority 2020, published 2021).
“Also recorded” adds a separate entry of the source.

Assays:
[1] = tested on: Gibco Human Episomal iPSCs; test: ROCK inhibitor pairing with PSC base medium formulation; assay type: cell-based; settings: ROCKi used at time of passaging
Experimental: Following 5-day growth with 50% medium exchange daily and constant agitation on an orbital shake platform, fold-change upon expansion was assessed.

iPSCs = test: DOE on balance of CHIR99021, Go6983 and BSA: spheroid formation, fold-expansion, Oct4 pluripotency; assay type: cell-based, human; settings: for concentration giving maximal fold change (DOE prediction profiler): iPSCs in suspension, preference stated across WA09 ESCs and Gibco Human Episomal iPSCs
Experimental: DOE was conducted to assess the balance of CHIR99021, Go6983 (a broad-spectrum PKC inhibitor), and BSA in achieving optimum fold-expansion, while also providing support of maintenance of pluripotency. […] Variation in spheroid size resulting from the various culture conditions was assess by phase contrast imaging. […] At day 5 of culture spheroids were dissociated using StemPro Accutase and replated into 2D format for 24 hours. After 24 hours of growth, the cells were fixed, permeabilized and stained with DAPI and for Oct4 expression to determine the pluripotency of the dissociated cells. The number of cells expressing Oct4 was compared to the total number of cells expressing DAPI, enabling an estimation of the percentage of pluripotent stem cells obtained from the spheroids.
Various concentrations of Pinacidil, CHIR99021, Go6893, and BSA, with or without anti-clumping agent, was assessed for achieving fold-expansion of iPSCs in suspension culture. […] Overall, CHIR99021 facilitates spheroid formation and a balance of albumin and CHIR99021 maintains appropriate spheroid size.

[2] = tested on: Gibco Human Episomal iPSCs and WA09 ESCs; test: DOE of small molecules on PSC expansion in suspension culture (viable cell counts Day 5); assay type: cell-based; settings: for fold-expansion of PSCs: added to base PSC medium+1× RevitaCell, 24 well, 120 RPM, viable cell counts Day 5
Experimental: Design of Experiment (DOE) was conducted using Gibco Human Episomal induced pluripotent stem cells (iPSCs) and WA09 embryonic stem cells (ESCs) to determine the impact of the small molecules. These PSCs were seeded in base PSC medium+1× RevitaCell™ Supplement and grown in a 24 well non-tissue culture treated plate at 120 RPM on an orbital shaker platform and cell expansion was assessed via viable cell counts on Day 5. […] FIG. 1 depicts results from the assessment of various concentrations of an anti-clumping agent and individual small molecules CHIR99021, PD0325901, SP00125, BIRD796, and Go6983on the expansion of iPSCs and WA09 hESCs.

[3] = tested on: Gibco Human Episomal iPSCs; test: ROCKi comparison (Chroman I, Pinacidil, RevitaCell vs Y-27632) in PSC medium; assay type: cell-based; settings: 1× RevitaCell, 60 μM Pinacidil; for spheroid morphology (size): 50 nM Chroman I, 10 μM Y-27632; for spheroid expansion: Chroman I vs 10 μM Y-27632, CHIR99021 containing PSC medium, 5 days
Experimental: Gibco Human Episomal iPSCs were expanded in non-tissue culture treated 6 well plates on an orbital shaker set to 70 RPM. The cells were passaged from 2D cultures using StemPro Accutase and grown in PSC Medium. Cells were seeded on Day 0 at a concentration of 150,000 cells/mL in a 2 mL volume, with a ROCK inhibitor added to the culture. […] Spheroids were grown over 5 days, with 50% medium replacement performed daily.

[4] = tested on: Gibco Human Episomal iPSCs; test: Spheroid growth and Oct4 pluripotency by seeding supplement (RevitaCell, Y-27632, Cellartis Supplement 3); assay type: cell-based
Experimental: PSC fold-expansion and pluripotency maintenance was compared for spheroid cultures seeded with a ROCK inhibitor or with the Cellartis Supplement 3 of the commercially available Cellartis Def-CS 3D medium system and grown in the complete PSC medium provided herein. Gibco Human Episomal iPSCs were expanded in 24-well non tissue culture treated plates at 120 RPM on an orbital shaker platform in the complete PSC medium to determine whether the type of ROCKi or Supplement selected for use affects the overall spheroid growth. […] Overall spheroid growth and expansion was assessed after the cells had grown for 5 days in the 24 well plate (FIG. 15A). The pluripotency of the spheroids was also assessed after the cells had grown for 5 days in the 24 well plate (FIG. 15B). To assess pluripotency, spheroids were dissociated using StemPro Accutase and replated into 2D format for 24 hours. After 24 hours of growth, the cells were fixed, permeabilized and stained with DAPI and for Oct4 expression to determine the pluripotency of the dissociated cells. The number of cells expressing Oct4 was compared to the total number of cells expressing DAPI, enabling an estimation of the percentage of pluripotent stem cells obtained from the spheroids.

[5] = tested on: Gibco Human Episomal iPSCs and WA09 ESCs; test: Expansion and spheroid morphology with small molecules added continuously vs Day 1 only; assay type: cell-based
Experimental: Cell morphology was assessed following exposure to formulations containing 3 μM CHIR99021 in continuous culture media vs exposure at day 1 only. iPSCs were grown in a 24 well non-tissue culture treated plate at 120 RPM on an orbital shaker platform and cell morphology was assessed on Day 5. In this experiment, the small molecules were added on Day 1 only or throughout the culture period. […] Cell expansion and morphology were assessed for PSC suspension cultures following incubation with the base PSC media formulation containing CHIR99021 alone or in combination with one or more of the other small molecules and/or anti-clumping agent. PSCs were grown in a 24 well non-tissue culture treated plate at 120 RPM on an orbital shaker platform and cell morphology was examined and cell expansion was assessed via viable cell counts on Day 5. In this experiment, the small molecules were either added on Day 1 only or throughout the culture period. In these figures, the x-axis indicates various formulations tested and the y-axis indicates the fold-change in viable cell counts from day 1 to day 5 of culture. Micrographs of the cell cultures at day 5 under certain conditions are also shown. […] It was surprising that the increase in fold-change could be accomplished through inclusion of CHIR99021 at the time of passage only (e.g., Day 1 only).

[6] = tested on: Gibco Human Episomal iPSCs; test: Optimal range of CHIR99021 in 100 mL PBS bioreactors: fold-change and viability; assay type: cell-based
Experimental: The optimal range of CHIR99021 for use in the PSC Medium formulation if included in the formulation for everyday feeds was assessed. Gibco Human Episomal iPSCs were expanded in 100 mL PBS bioreactors in duplicate and cell counts were performed at the end of each passage. […] The sugar source (glucose/galactose) and the concentration of CHIR99021 was varied. The feed schedule was also modified to include every day vs. every-other-day feed schedules. Fold-change upon expansion and viability were assessed for each condition. CHIR99021 concentrations as low as 0.6 μM supported optimal cell expansion on an every-day medium exchange feed schedule (FIG. 11A) and viability on an every-day and every-other-day medium exchange feed schedule (FIG. 11B). […] (FIGS. 11A-11B).

H9 (WA09) ESCs = test: ESC expansion in PSC basal medium with or without CHIR99021 vs mTeSR1; assay type: cell-based, human; settings: 10 μM Y-27632 at passaging; Day 5
Experimental: PSC expansion using the PSC media formulations provided herein was compared to expansion in commercially available media. H9 (WA09) ESCs were expanded in PSC basal medium in the absence of CHIR99021, PSC basal medium in the presence of CHIR99021, and in the mTeSR1 media formulation (Stem Cell Technologies). PSCs were passaged using StemPro™ Accutase™ cell dissociation reagent and grown in 6 well non-tissue culture treated plates seeded at 150,000 viable cells/mL in 2 mL of media and agitated at 70 RPM on an orbital shaker platform. […] Cell expansion was assessed via viable cell counts on Day 5. Cultures were fed with 50% medium replacement performed daily.

In the case of `O=C(NCc1ccccc1)c1csc(Nc2ccncn2)n1` [Thiazovivin], the “spheroid size relative to Pinacidil” value [1] is reported as “Larger spheroids”.
In the case of `COc1ccc2c(c1)c(C1=C(c3c[nH]c4ccccc34)C(=O)NC1=O)cn2CCCN(C)C` [Go6983], the “concentration giving maximal fold change (DOE prediction profiler)” value (iPSCs) is reported as “exclusion of Go6983 and anti-clump agent is preferred”.
With `O=C(NOC[C@H](O)CO)c1ccc(F)c(F)c1Nc1ccc(I)cc1F` [PD0325901] the “fold-expansion of PSCs” value [2] was “detrimental to overall PSC expansion”.
With `CC(N/C(=N\C#N)Nc1ccncc1)C(C)(C)C` (stereo not drawn) [Pinacidil] the “spheroid morphology (size)” value [3] was “morphologically smaller” and the spheroid expansion [3] was “inferior to 10 μM Y-27632”.
For `C[C@@H](N)[C@H]1CC[C@H](C(=O)Nc2ccncc2)CC1` [Y-27632, (R)-(+)-trans-4-(1-aminoethyl)-N-(4-pyridyl)cyclohexanecarboxamide], the “spheroid size and morphology on Day 5” value ([4]; added on day 1 in complete PSC medium, 24 well, 120 RPM) was “most efficient with larger spheroids”, the “maintenance of pluripotency (Oct4 vs DAPI)” value ([4]; after 5 days, replated 24 hours) was “maintain high levels of pluripotent stem cells” and the “spheroid morphology (size)” value [3] was “morphologically larger”. For the same compound, the spheroid expansion [3] was “optimal performance”.
`Cc1cnc(-c2cnc(NCCNc3ccc(C#N)cn3)nc2-c2ccc(Cl)cc2Cl)[nH]1` [CHIR99021, 6-[[2-[[4-(2,4-dichlorophenyl)-5-(5-methyl-1H-imidazol-2-yl)-2-pyrimidinyl]amino]ethyl]amino]-3-pyridinecarbonitrile] was tested, and the cell nucleation ([2]; CHIR99021 alone in base PSC medium formulation) was “assisted in cell nucleation”, the “fold-expansion of PSCs” value [2] was “significant improvement in fold-expansion” and the “spheroid morphology Day 5” value ([5]; 3 μM CHIR99021 included on a continual basis) was “aberrant differentiation was noted for some conditions”. The fold-expansion ([5]; CHIR99021 at various concentrations only at time of passaging) was “effective at increasing fold-expansion”, the “spheroid morphology Day 5” value ([5]; CHIR99021 included only at time of passaging (Day 1)) was “typical smooth edges and spheroid morphology; also recorded: maintain normal spheroidal morphology” and the “concentration giving maximal fold change (DOE prediction profiler)” value (iPSCs) was “intermediate concentration”. The spheroid formation (iPSCs; seeded with 10 μM Y-27632, 3 μM CHIR99021 present or absent) was “aids in spheroid formation”, the “CHIR99021 concentration supporting optimal cell expansion” value ([6]; continuously in medium, every-day medium exchange) was no less than 0.6 µM and the “CHIR99021 concentration supporting viability” value ([6]; every-day and every-other-day medium exchange) was no less than 0.6 µM. The “CHIR99021 concentration supporting optimal fold-expansion” value ([6]; fed on every-other-day cadence) was “up to 1.5 μM”, the “fold-expansion compared to PSC basal medium without CHIR99021” value (H9 (WA09) ESCs) was “enhances fold-expansion” and the “fold-expansion compared to mTeSR1” value (H9 (WA09) ESCs) was “significantly enhanced fold-expansion”.
For `COc1ccc2c(c1)C[C@H](C(=O)Nc1ccc(-c3cn[nH]c3)cc1OCCN(C)C)CO2` [Chroman I], the “spheroid morphology (size)” value [3] was “morphologically larger” and the spheroid expansion [3] was “perform similarly”.
In the case of `O=C1c2ccccc2-c2n[nH]c3cccc1c23` [SP00125], the “fold-expansion of PSCs” value [2] is reported as “detrimental to overall PSC expansion”.
